The target of one assay is T1, COX-2 (Mus musculus, UniProt Q05769).
T1 construct: host or cells: RAW 264.7 cells, aspirin-pretreated, then induced with interferon gamma and LPS
T1 sequence (Q05769 18-604): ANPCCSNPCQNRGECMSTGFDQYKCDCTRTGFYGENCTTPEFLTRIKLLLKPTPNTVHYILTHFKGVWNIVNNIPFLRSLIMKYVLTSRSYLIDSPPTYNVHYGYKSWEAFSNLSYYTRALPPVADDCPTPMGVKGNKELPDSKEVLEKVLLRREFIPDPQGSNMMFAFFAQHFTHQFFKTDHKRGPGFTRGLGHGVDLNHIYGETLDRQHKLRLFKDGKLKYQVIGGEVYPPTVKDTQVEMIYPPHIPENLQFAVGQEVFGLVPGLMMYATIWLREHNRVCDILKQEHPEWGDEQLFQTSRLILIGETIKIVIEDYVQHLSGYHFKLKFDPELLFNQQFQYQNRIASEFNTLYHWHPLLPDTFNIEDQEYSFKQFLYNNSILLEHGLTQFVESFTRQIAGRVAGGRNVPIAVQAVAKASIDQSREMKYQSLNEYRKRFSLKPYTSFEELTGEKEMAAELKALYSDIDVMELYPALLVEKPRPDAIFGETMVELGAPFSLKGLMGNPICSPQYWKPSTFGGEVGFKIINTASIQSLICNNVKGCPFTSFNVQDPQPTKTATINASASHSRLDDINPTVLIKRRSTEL
Briefly: Assay for the COX-2 inhibitory activity using RAW 264.7 cell line (PGE2 inhibition). Type of assay: cell-based. Particulars: RAW264.7, 10 nM test compound, RAW 264.7 cells, interferon γ and LPS, 18 hours, read-out: Cyclooxygenase (COX) Inhibition (%) COX-2 (10 nM). As to the method: Each well was treated with 250 μM of aspirin and incubated at 37° C. for 2 hours. After the culture media were replaced with new culture media, the new culture media were treated with a test compound (10 nM) and incubated for 30 minutes. Then, each well was treated with interferon γ (100 units/ml) and lipopolysaccharide (LPS, 100 ng/ml) and incubated for 18 hours. The culture media were transferred to other test tubes. The concentration of PGE2 was quantified by means of the EIA kit (Cayman Chemicals).
(§1) The percentages of the COX inhibition were calculated according to the following equation: % Inhibition=(concentration of PGE2 in test compound-untreated sample−concentration of PGE2 in test compound-treated sample)/(concentration of PGE2 in test compound-untreated sample)×100

The next assay deals with T2, COX-1 (Homo sapiens, UniProt P23219).
T2 construct: host or cells: U-937 human lymphoma cells
T2 sequence (P23219 24-599): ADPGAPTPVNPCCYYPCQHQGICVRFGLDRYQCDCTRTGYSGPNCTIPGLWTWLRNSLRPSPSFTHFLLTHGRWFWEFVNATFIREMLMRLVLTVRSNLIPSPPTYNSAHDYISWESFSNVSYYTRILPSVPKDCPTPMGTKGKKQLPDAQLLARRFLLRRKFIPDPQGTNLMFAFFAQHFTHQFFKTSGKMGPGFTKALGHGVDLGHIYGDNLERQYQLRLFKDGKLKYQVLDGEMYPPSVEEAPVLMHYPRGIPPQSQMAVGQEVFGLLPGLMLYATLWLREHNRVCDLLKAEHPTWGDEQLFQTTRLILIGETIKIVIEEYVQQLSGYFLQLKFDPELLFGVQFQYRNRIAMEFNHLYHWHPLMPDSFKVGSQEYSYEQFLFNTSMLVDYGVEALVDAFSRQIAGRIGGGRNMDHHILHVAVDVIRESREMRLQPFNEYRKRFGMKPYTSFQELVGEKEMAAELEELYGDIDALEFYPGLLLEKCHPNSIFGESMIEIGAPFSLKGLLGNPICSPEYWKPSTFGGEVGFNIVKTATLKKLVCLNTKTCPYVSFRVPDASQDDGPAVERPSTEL
Briefly: Assay for the COX-1 inhibitory activity using U-937 (PGE2 inhibition). Type of assay: cell-based. Particulars: 1 μM test compound; U-937 human lymphoma cells; PGE2 after arachidonic acid; read-out: Cyclooxygenase (COX) Inhibition (%) COX-1 (1 μM). As to the method: The collected cells were diluted with HBSS (×1, Hank's balanced salt solution) to a concentration of 1×10^6 cells/ml. 1 ml of the dilute cell solution was placed into each well of 12-well plates. 5 μl of 1 μM solution of a test compound in DMSO and 5 μl of DMSO as a control were added to the wells. The wells were incubated in CO2 incubator at 37° C. for 15 minutes. Separately, 10 mM stock solution of arachidonic acid in ethanol was diluted ten times in ethanol to prepare 1 mM solution of arachidonic acid. Arachidonic acid acts as a substrate. 10 μl of the 1 mM solution of arachidonic acid was added to each well and incubated at CO2 incubator at 37° C. for 30 minutes. The cell solution of each well was placed in a centrifuge test tube and centrifuged at 10,000 rpm at 4° C. for 5 minutes. The concentration of PGE2 in the collected cells and the supernatant was quantified by means of a monoclonal kit (Cayman Chemicals). The percentages of PGE2 inhibition in a group of the test compound-treated cells in relation to a group of the DMSO-treated cells were calculated. Based on the calculated values, the COX-1 inhibitory activities were evaluated.
as §1

This note sets out measurements from patent US7473700B2, “1,2,4-triazole derivatives, processes for the preparation thereof, and pharmaceutical compositions containing the same” (CJ Corporation, priority 2002, dated 2009).

One may read the inhibition as how much of the control response was suppressed. Turning to `CCOc1nc(-c2ccc(OC)cc2)n(-c2ccc(S(N)(=O)=O)cc2)n1` [Example 30, 4-[3-ethoxy-5-(4-methoxyphenyl)-1,2,4-triazole-1-yl]-benzenesulfonamide], the inhibition at 0.01 µM on COX-2 came to 13.2%. Further, the inhibition at 1 µM on COX-1 was determined as 16.4%.

With `CCOc1nc(-c2ccccc2)n(-c2ccc(S(N)(=O)=O)cc2)n1` [Example 31, 4-(3-ethoxy-5-phenyl-1,2,4-triazole-1-yl)-benzenesulfonamide], the inhibition at 0.01 µM at COX-2 was 16.4%. Further, the inhibition at 1 µM at COX-1 was found to be 15.5%.

Regarding `CCOc1nc(-c2ccc(F)cc2)n(-c2ccc(S(N)(=O)=O)cc2)n1` [Example 32, 4-[3-ethoxy-5-(4-fluorophenyl)-1,2,4-triazole-1-yl]-benzenesulfonamide], the inhibition at 0.01 µM on COX-2 came out at 11.5%. Moreover, the inhibition at 1 µM on COX-1 came out at 21.4%.

As for `CCOc1nc(-c2ccc(OC)c(F)c2)n(-c2ccc(S(N)(=O)=O)cc2)n1` [Example 33, 4-[3-ethoxy-5-(3-fluoro-4-methoxyphenyl)-1,2,4-triazole-1-yl]-benzenesulfonamide], the inhibition at 0.01 µM at COX-2 came out at 10.5%. The inhibition at 1 µM on COX-1 was 23.7%.

Turning to `CCSc1nc(-c2ccccc2)n(-c2ccc(S(N)(=O)=O)cc2)n1` [Example 34, 4-(3-ethylthio-5-phenyl-1,2,4-triazole-1-yl)-benzenesulfonamide], the inhibition at 0.01 µM at COX-2 was found to be 9.5%. For the same compound, the inhibition at 1 µM at COX-1 stood at 31.2%.

Consider `CCCOc1nc(-c2ccc(OC)cc2)n(-c2ccc(S(N)(=O)=O)cc2)n1` [Example 35, 4-[3-propoxy-5-(4-methoxyphenyl)-1,2,4-triazole-1-yl]-benzenesulfonamide], for which the inhibition at 0.01 µM at COX-2 turned out to be 16.1%. In addition, the inhibition at 1 µM at COX-1 turned out to be 23.4%.

With `CCCOc1nc(-c2ccc(F)cc2)n(-c2ccc(S(N)(=O)=O)cc2)n1` [Example 36, 4-[3-propoxy-5-(4-fluorophenyl)-1,2,4-triazole-1-yl]-benzenesulfonamide], on COX-2, the inhibition at 0.01 µM is 17.2%. The inhibition at 1 µM at COX-1 is 27%.

As for `COc1ccc(-c2nc(OC3CCCC3)nn2-c2ccc(S(N)(=O)=O)cc2)cc1` [Example 37, 4-[3-cyclopentyloxy-5-(4-methoxyphenyl)-1,2,4-triazole-1-yl]-benzenesulfonamide], the inhibition at 0.01 µM at COX-2 came to 22.3%. For the same compound, at COX-1, the inhibition at 1 µM came out at 12%.

Turning to `NS(=O)(=O)c1ccc(-n2nc(OC3CCCC3)nc2-c2ccc(F)cc2)cc1` [Example 38, 4-[3-cyclopentyloxy-5-(4-fluorophenyl)-1,2,4-triazole-1-yl]-benzenesulfonamide], at COX-2, the inhibition at 0.01 µM came out at 33.1%. The inhibition at 1 µM on COX-1 is 17.4%.

Turning to `COc1ccc(-c2nc(OC3CCCCC3)nn2-c2ccc(S(N)(=O)=O)cc2)cc1` [Example 39, 4-[3-cyclohexyloxy-5-(4-methoxyphenyl)-1,2,4-triazole-1-yl]-benzenesulfonamide], at COX-2, the inhibition at 0.01 µM was found to be 20.7%. For the same compound, the inhibition at 1 µM on COX-1 worked out at 15.5%.

As to `NS(=O)(=O)c1ccc(-n2nc(OC3CCCCC3)nc2-c2ccc(F)cc2)cc1` [Example 40, 4-[3-cyclohexyloxy-5-(4-fluorophenyl)-1,2,4-triazole-1-yl]-benzenesulfonamide], the inhibition at 0.01 µM on COX-2 amounted to 16.2%. The inhibition at 1 µM at COX-1 is 16.2%.

Regarding `COc1ccc(-c2nc(OCC#N)nn2-c2ccc(S(N)(=O)=O)cc2)cc1` [Example 41, 4-[3-cyanomethoxy-5-(4-methoxyphenyl)-1,2,4-triazole-1-yl]-benzenesulfonamide], the inhibition at 0.01 µM at COX-2 was determined as 15.5%. Further, the inhibition at 1 µM at COX-1 was 27.7%.

For `N#CCOc1nc(-c2ccc(F)cc2)n(-c2ccc(S(N)(=O)=O)cc2)n1` [Example 42, 4-[3-cyanomethoxy-5-(4-fluorophenyl)-1,2,4-triazole-1-yl]-benzenesulfonamide], the inhibition at 0.01 µM at COX-2 was 13.3%. Further, the inhibition at 1 µM at COX-1 was 26.6%.

Regarding `C#CCOc1nc(-c2ccc(OC)cc2)n(-c2ccc(S(N)(=O)=O)cc2)n1` [Example 43, 4-[3-prop-2-ynyloxy-5-(4-methoxyphenyl)-1,2,4-triazole-1-yl]-benzenesulfonamide], the inhibition at 0.01 µM on COX-2 was 16.7%. Further, the inhibition at 1 µM on COX-1 turned out to be 30.4%.

On to `C#CCOc1nc(-c2ccc(F)cc2)n(-c2ccc(S(N)(=O)=O)cc2)n1` [Example 44, 4-[3-prop-2-ynyloxy-5-(4-fluorophenyl)-1,2,4-triazole-1-yl]-benzenesulfonamide], for which, on COX-2, the inhibition at 0.01 µM was determined as 14.5%. The inhibition at 1 µM on COX-1 amounted to 27.2%.

For `C#CCSc1nc(-c2ccccc2)n(-c2ccc(S(N)(=O)=O)cc2)n1` [Example 45, 4-(3-prop-2-ynylthio-5-phenyl-1,2,4-triazole-1-yl)-benzenesulfonamide], at COX-2, the inhibition at 0.01 µM was found to be 13.3%. Moreover, on COX-1, the inhibition at 1 µM stood at 23.4%.

As to `COc1ccc(-c2nc(OC(C)C)nn2-c2ccc(S(N)(=O)=O)cc2)cc1` [Example 46, 4-[3-isopropoxy-5-(4-methoxyphenyl)-1,2,4-triazole-1-yl]-benzenesulfonamide], on COX-2, the inhibition at 0.01 µM turned out to be 12.2%. Moreover, the inhibition at 1 µM on COX-1 worked out at 34.2%.

For the compound `CC(C)Oc1nc(-c2ccccc2)n(-c2ccc(S(N)(=O)=O)cc2)n1` [Example 47, 4-(3-isopropoxy-5-phenyl-1,2,4-triazole-1-yl)-benzenesulfonamide], on COX-2, the inhibition at 0.01 µM came out at 10.6%. For the same compound, the inhibition at 1 µM on COX-1 amounted to 25.4%.

Turning to `CC(C)Oc1nc(-c2ccc(F)cc2)n(-c2ccc(S(N)(=O)=O)cc2)n1` [Example 48, 4-[3-isopropoxy-5-(4-fluorophenyl)-1,2,4-triazole-1-yl]-benzenesulfonamide], the inhibition at 0.01 µM on COX-2 worked out at 9.8%. Moreover, on COX-1, the inhibition at 1 µM turned out to be 26.4%.

With `CC(C)Sc1nc(-c2ccccc2)n(-c2ccc(S(N)(=O)=O)cc2)n1` [Example 49, 4-(3-isopropylthio-5-phenyl-1,2,4-triazole-1-yl)-benzenesulfonamide], the inhibition at 0.01 µM on COX-2 came out at 24.5%. Further, on COX-1, the inhibition at 1 µM was 33.1%.

On to `COc1ccc(-c2nc(OCc3ccccc3)nn2-c2ccc(S(N)(=O)=O)cc2)cc1F` [Example 50, 4-[3-benzyloxy-5-(3-fluoro-4-methoxyphenyl)-1,2,4-triazole-1-yl]-benzenesulfonamide], for which the inhibition at 0.01 µM at COX-2 came to 16.1%. For the same compound, the inhibition at 1 µM on COX-1 was 28%.

Take `NS(=O)(=O)c1ccc(-n2nc(OCc3ccccc3)nc2-c2ccccc2)cc1` [Example 51, 4-(3-benzyloxy-5-phenyl-1,2,4-triazole-1-yl)-benzenesulfonamide]: the inhibition at 0.01 µM at COX-2 is 23.4%. The inhibition at 1 µM at COX-1 worked out at 21.4%.

Take `C=CCOc1nc(-c2ccc(OC)cc2)n(-c2ccc(S(N)(=O)=O)cc2)n1` [Example 52, 4-[3-allyloxy-5-(4-methoxyphenyl)-1,2,4-triazole-1-yl]-benzenesulfonamide]: the inhibition at 0.01 µM on COX-2 came out at 33.1%. The inhibition at 1 µM at COX-1 was determined as 34.3%.

With `C=CCOc1nc(-c2ccccc2)n(-c2ccc(S(N)(=O)=O)cc2)n1` [Example 53, 4-(3-allyloxy-5-phenyl-1,2,4-triazole-1-yl)-benzenesulfonamide], the inhibition at 0.01 µM at COX-2 is 16.2%. In addition, the inhibition at 1 µM on COX-1 was found to be 20.4%.

As for `C=CCOc1nc(-c2ccc(F)cc2)n(-c2ccc(S(N)(=O)=O)cc2)n1` [Example 54, 4-[3-allyloxy-5-(4-fluorophenyl)-1,2,4-triazole-1-yl]-benzenesulfonamide], on COX-2, the inhibition at 0.01 µM was found to be 15.5%. Further, the inhibition at 1 µM on COX-1 is 26.4%.

Take `COc1ccc(-c2nc(OCC(F)(F)F)nn2-c2ccc(S(N)(=O)=O)cc2)cc1` [Example 55, 4-[3-(2,2,2-trifluoroethoxy)-5-(4-methoxyphenyl)-1,2,4-triazole-1-yl]-benzenesulfonamide]: the inhibition at 0.01 µM at COX-2 is 16.2%. Moreover, on COX-1, the inhibition at 1 µM was determined as 33.1%.
